Calls of active or inactive are those of the source. The rule behind the calls is not given here.
Assays:
[1] = biological target: T1, Arylamine N-acetyltransferase (Mycolicibacterium smegmatis, UniProt O86309); assay: Inhibition of Mycobacterium smegmatis recombinant NAT expressed in Escherichia coli BL21 at 0.5 mg/mL
T1 sequence (O86309 whole entry): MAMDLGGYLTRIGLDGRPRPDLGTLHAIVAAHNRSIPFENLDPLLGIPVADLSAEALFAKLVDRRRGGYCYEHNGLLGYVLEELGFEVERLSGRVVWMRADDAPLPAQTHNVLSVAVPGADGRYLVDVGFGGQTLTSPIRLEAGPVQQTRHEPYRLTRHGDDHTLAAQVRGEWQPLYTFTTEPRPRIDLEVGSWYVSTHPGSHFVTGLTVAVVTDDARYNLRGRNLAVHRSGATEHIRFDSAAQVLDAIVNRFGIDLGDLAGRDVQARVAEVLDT

[2] = tested on: Mycobacterium tuberculosis; assay: Growth inhibition of Mycobacterium tuberculosis H37Rv at 0.05 ug/mL after 21 days; assay type: functional, organism-based

SMILES: CC(=O)O[C@@H]1C=C2C(=O)O[C@@H](O)[C@]2(O)[C@@]2(C)CCCC(C)(C)[C@H]12
- inhibition at 500 µg/mL [1]: 35%

SMILES: NNC(=O)c1ccncc1
- Activity [2]: Active
